From ChEMBL document CHEMBL4270485, “Determination of Gymnemic Acid I as a Protein Biosynthesis Inhibitor Using Chemical Proteomics” (J Nat Prod, 2017)

Columns and labels:
[1] = target: T1, 80S Ribosome (Homo sapiens) (UniProt P08865+P42677+P62753+P15880+P23396+P61247+P62701+P22090+P46782+P62081+P62241+P46781+P46783+P62280+P25398+P62277+P62263+P62841+P62244+P62249+P08708+P62269+P39019+P60866+P63220+P62266+P62847+P62851+P62854+P62979+P62857+P62273+P62861+P39023+P36578+P46777+Q02878+P18124+P62424+P62917+P32969+P27635+P62906+P62913+P30050+P26373+P40429+P50914+P61313+P18621+Q07020+Q02543+P84098+P46778+P35268+P62829+P62750+P83731+P61254+P61353+P46776+P46779+P47914+P62888+P62899+P62910+P49207+P42766+P18077+Q9Y3U8+P83881+P61927+P61513+P63173+P62891+P62945+P05388+P05386); assay: Binding affinity to 40S ribosomal protein S2 in human Hela cells lysates assessed as protein enrichment by measuring normalized heavy/light ratio at by nano-LC-ESIMS/MS analysis; assay type: cell-free
[2] = target: Small ribosomal subunit protein eS27 (Homo sapiens) (UniProt P42677); assay: Binding affinity to 40S ribosomal protein S27 in human Hela cells lysates assessed as protein enrichment by measuring normalized heavy/light ratio at by nano-LC-ESIMS/MS analysis; assay type: cell-free
[3] = target: T1, 80S Ribosome (Homo sapiens); assay: Binding affinity to 40S ribosomal protein S30 in human Hela cells lysates assessed as protein enrichment by measuring normalized heavy/light ratio at by nano-LC-ESIMS/MS analysis; assay type: cell-free
[4] = target: T1, 80S Ribosome (Homo sapiens); assay: Binding affinity to 40S ribosomal protein S3a in human Hela cells lysates assessed as protein enrichment by measuring normalized heavy/light ratio at by nano-LC-ESIMS/MS analysis; assay type: cell-free
[5] = target: T1, 80S Ribosome (Homo sapiens); assay: Binding affinity to 40S ribosomal protein S5 in human Hela cells lysates assessed as protein enrichment by measuring normalized heavy/light ratio at by nano-LC-ESIMS/MS analysis; assay type: cell-free
[6] = target: T1, 80S Ribosome (Homo sapiens); assay: Binding affinity to 60S acidic ribosomal protein P1 in human Hela cells lysates assessed as protein enrichment by measuring normalized heavy/light ratio at by nano-LC-ESIMS/MS analysis; assay type: cell-free
[7] = target: Large ribosomal subunit protein P2 (Homo sapiens) (UniProt P05387); assay: Binding affinity to 60S acidic ribosomal protein P2 in human Hela cells lysates assessed as protein enrichment by measuring normalized heavy/light ratio at by nano-LC-ESIMS/MS analysis; assay type: cell-free
Sequence of Large ribosomal subunit protein P2 (Homo sapiens) (P05387 whole entry): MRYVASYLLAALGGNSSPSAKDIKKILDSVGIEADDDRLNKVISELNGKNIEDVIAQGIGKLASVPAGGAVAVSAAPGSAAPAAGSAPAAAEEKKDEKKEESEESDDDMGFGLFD

[8] = target: T1, 80S Ribosome (Homo sapiens); assay: Binding affinity to 60S ribosomal protein L13 in human Hela cells lysates assessed as protein enrichment by measuring normalized heavy/light ratio at by nano-LC-ESIMS/MS analysis; assay type: cell-free
[9] = target: T1, 80S Ribosome (Homo sapiens); assay: Binding affinity to 60S ribosomal protein L23 in human Hela cells lysates assessed as protein enrichment by measuring normalized heavy/light ratio at by nano-LC-ESIMS/MS analysis; assay type: cell-free
[10] = target: T1, 80S Ribosome (Homo sapiens); assay: Binding affinity to 60S ribosomal protein L4 in human Hela cells lysates assessed as protein enrichment by measuring normalized heavy/light ratio at by nano-LC-ESIMS/MS analysis; assay type: cell-free
[11] = target: Alpha-enolase (Homo sapiens) (UniProt P06733); assay: Binding affinity to alpha-enolase in human Hela cells lysates assessed as protein enrichment by measuring normalized heavy/light ratio at by nano-LC-ESIMS/MS analysis; assay type: cell-free
Sequence of Alpha-enolase (Homo sapiens) (P06733 whole entry): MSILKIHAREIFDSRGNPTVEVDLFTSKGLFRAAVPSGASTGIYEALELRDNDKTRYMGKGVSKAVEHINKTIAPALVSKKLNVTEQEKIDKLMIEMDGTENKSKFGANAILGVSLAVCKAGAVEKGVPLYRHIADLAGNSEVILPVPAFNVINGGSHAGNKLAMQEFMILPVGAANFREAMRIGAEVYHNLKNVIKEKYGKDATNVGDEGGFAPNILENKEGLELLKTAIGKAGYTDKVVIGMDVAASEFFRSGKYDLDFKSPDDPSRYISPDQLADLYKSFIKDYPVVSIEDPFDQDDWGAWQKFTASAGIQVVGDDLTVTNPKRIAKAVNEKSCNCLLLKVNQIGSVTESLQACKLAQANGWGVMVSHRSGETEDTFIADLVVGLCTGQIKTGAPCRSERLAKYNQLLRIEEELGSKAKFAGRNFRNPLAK

[12] = target: Elongation factor 1-gamma (Homo sapiens) (UniProt P26641); assay: Binding affinity to elongation factor 1-gamma in human Hela cells lysates assessed as protein enrichment by measuring normalized heavy/light ratio at by nano-LC-ESIMS/MS analysis; assay type: cell-free
Sequence of Elongation factor 1-gamma (Homo sapiens) (P26641 whole entry): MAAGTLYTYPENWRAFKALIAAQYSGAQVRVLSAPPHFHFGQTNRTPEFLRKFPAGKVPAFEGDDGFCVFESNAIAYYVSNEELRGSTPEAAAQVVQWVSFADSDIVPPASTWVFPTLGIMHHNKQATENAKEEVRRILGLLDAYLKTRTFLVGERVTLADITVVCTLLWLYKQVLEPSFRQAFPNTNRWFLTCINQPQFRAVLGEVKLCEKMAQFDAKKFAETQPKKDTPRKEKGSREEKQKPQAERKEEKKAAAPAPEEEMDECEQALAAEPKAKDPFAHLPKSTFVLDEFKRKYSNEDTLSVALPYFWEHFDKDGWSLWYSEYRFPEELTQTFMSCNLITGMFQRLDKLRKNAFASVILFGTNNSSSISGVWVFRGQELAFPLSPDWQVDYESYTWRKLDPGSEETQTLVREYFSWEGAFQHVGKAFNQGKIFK

[13] = target: Glyceraldehyde-3-phosphate dehydrogenase (Homo sapiens) (UniProt P04406); assay: Binding affinity to glyceraldehyde-3-phosphate dehydrogenase in human Hela cells lysates assessed as protein enrichment by measuring normalized heavy/light ratio at by nano-LC-ESIMS/MS analysis; assay type: cell-free
Sequence of Glyceraldehyde-3-phosphate dehydrogenase (Homo sapiens) (P04406 2-335 limits assumed): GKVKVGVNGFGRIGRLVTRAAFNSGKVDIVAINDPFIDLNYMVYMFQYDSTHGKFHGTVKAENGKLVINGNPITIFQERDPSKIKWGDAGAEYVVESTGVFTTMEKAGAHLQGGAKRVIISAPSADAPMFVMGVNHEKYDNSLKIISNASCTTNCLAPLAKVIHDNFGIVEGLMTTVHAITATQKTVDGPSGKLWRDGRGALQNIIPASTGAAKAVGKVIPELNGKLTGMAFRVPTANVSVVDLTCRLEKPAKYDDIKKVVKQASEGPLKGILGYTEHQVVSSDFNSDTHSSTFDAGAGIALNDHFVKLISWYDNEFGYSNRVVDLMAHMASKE

[14] = target: GTP-binding nuclear protein Ran (Homo sapiens) (UniProt P62826); assay: Binding affinity to GTP-binding nuclear protein ran in human Hela cells lysates assessed as protein enrichment by measuring normalized heavy/light ratio at by nano-LC-ESIMS/MS analysis; assay type: cell-free
[15] = target: L-lactate dehydrogenase A chain (Homo sapiens) (UniProt P00338); assay: Binding affinity to L-lactate dehydrogenase A chain in human Hela cells lysates assessed as protein enrichment by measuring normalized heavy/light ratio at by nano-LC-ESIMS/MS analysis; assay type: cell-free
[16] = target: Peptidyl-prolyl cis-trans isomerase A (Homo sapiens) (UniProt P62937); assay: Binding affinity to peptidyl-prolylcis-trans isomerase in human Hela cells lysates assessed as protein enrichment by measuring normalized heavy/light ratio at by nano-LC-ESIMS/MS analysis; assay type: cell-free
Sequence of Peptidyl-prolyl cis-trans isomerase A (Homo sapiens) (P62937 whole entry, looked up): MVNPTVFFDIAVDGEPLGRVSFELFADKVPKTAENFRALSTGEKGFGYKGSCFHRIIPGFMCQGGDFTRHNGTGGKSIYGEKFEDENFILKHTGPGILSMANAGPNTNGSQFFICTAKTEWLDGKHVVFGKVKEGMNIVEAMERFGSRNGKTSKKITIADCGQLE

[17] = target: Peroxiredoxin-1 (Homo sapiens) (UniProt Q06830); assay: Binding affinity to peroxiredoxin-1 in human Hela cells lysates assessed as protein enrichment by measuring normalized heavy/light ratio at by nano-LC-ESIMS/MS analysis; assay type: cell-free
Sequence of Peroxiredoxin-1 (Homo sapiens) (Q06830 whole entry): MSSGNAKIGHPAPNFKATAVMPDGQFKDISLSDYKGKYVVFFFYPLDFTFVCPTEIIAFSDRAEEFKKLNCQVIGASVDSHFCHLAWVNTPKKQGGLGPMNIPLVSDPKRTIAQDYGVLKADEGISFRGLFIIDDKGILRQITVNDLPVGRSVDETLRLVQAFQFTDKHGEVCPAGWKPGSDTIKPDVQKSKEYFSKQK

[18] = target: Phosphoglycerate kinase 1 (Homo sapiens) (UniProt P00558); assay: Binding affinity to phosphoglycerate kinase 1 in human Hela cells lysates assessed as protein enrichment by measuring normalized heavy/light ratio at by nano-LC-ESIMS/MS analysis; assay type: cell-free
Sequence of Phosphoglycerate kinase 1 (Homo sapiens) (P00558 whole entry): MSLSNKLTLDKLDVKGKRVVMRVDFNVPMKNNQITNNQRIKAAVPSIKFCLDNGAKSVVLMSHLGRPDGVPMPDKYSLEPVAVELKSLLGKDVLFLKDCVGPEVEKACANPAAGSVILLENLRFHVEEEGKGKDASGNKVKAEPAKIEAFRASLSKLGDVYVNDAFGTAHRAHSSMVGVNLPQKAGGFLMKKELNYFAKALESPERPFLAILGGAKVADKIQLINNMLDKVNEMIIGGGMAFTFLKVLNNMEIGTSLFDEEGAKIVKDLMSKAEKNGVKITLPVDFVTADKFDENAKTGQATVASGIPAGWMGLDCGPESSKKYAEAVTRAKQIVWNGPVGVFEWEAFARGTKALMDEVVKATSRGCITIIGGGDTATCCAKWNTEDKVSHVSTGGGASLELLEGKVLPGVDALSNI

[19] = target: Poly(rC)-binding protein 2 (Homo sapiens) (UniProt Q15366); assay: Binding affinity to poly(rC)-binding protein 2 in human Hela cells lysates assessed as protein enrichment by measuring normalized heavy/light ratio at by nano-LC-ESIMS/MS analysis; assay type: cell-free
Sequence of Poly(rC)-binding protein 2 (Homo sapiens) (Q15366 whole entry): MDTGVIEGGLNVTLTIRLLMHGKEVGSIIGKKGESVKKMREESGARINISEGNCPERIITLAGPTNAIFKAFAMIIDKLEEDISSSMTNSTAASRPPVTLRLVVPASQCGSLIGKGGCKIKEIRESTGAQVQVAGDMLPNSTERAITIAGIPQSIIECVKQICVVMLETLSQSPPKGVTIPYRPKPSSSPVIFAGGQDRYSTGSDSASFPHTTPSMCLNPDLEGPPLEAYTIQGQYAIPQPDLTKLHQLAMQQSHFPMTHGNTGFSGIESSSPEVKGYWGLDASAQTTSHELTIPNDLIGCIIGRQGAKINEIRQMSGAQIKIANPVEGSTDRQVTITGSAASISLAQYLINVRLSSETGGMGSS

[20] = target: Programmed cell death protein 6 (Homo sapiens) (UniProt O75340); assay: Binding affinity to programmed cell death protein 6 in human Hela cells lysates assessed as protein enrichment by measuring normalized heavy/light ratio at by nano-LC-ESIMS/MS analysis; assay type: cell-free
Sequence of Programmed cell death protein 6 (Homo sapiens) (O75340 whole entry): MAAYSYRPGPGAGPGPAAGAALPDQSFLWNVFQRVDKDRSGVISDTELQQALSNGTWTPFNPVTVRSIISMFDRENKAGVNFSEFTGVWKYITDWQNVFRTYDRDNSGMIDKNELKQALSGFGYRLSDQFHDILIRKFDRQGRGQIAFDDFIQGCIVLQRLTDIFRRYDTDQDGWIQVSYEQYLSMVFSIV

[21] = target: Putative annexin A2-like protein (Homo sapiens) (UniProt A6NMY6); assay: Binding affinity to putative annexin A2-like protein in human Hela cells lysates assessed as protein enrichment by measuring normalized heavy/light ratio at by nano-LC-ESIMS/MS analysis; assay type: cell-free
[22] = target: Transketolase (Homo sapiens) (UniProt P29401); assay: Binding affinity to transketolase in human Hela cells lysates assessed as protein enrichment by measuring normalized heavy/light ratio at by nano-LC-ESIMS/MS analysis; assay type: cell-free
Sequence of Transketolase (Homo sapiens) (P29401 whole entry): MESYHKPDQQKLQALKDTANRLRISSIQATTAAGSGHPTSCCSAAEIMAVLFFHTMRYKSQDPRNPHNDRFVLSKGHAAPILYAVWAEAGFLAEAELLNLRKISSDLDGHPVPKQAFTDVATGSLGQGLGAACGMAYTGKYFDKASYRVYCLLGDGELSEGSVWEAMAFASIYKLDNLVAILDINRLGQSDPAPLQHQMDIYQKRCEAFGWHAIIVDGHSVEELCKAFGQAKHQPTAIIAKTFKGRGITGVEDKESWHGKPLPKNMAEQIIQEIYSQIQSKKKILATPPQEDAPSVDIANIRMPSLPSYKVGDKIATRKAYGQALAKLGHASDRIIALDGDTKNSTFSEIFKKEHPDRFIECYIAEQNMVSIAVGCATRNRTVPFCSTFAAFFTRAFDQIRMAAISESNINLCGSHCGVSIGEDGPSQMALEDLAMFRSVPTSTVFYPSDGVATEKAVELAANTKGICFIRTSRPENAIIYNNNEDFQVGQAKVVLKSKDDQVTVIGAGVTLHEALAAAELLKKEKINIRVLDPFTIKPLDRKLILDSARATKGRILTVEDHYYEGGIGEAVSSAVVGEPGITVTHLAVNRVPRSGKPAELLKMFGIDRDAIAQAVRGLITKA

[23] = target: Tubulin beta-5 chain (Homo sapiens) (UniProt P07437); assay: Binding affinity to tubulin beta chain in human Hela cells lysates assessed as protein enrichment by measuring normalized heavy/light ratio at by nano-LC-ESIMS/MS analysis; assay type: cell-free
Sequence of Tubulin beta-5 chain (Homo sapiens) (P07437 whole entry): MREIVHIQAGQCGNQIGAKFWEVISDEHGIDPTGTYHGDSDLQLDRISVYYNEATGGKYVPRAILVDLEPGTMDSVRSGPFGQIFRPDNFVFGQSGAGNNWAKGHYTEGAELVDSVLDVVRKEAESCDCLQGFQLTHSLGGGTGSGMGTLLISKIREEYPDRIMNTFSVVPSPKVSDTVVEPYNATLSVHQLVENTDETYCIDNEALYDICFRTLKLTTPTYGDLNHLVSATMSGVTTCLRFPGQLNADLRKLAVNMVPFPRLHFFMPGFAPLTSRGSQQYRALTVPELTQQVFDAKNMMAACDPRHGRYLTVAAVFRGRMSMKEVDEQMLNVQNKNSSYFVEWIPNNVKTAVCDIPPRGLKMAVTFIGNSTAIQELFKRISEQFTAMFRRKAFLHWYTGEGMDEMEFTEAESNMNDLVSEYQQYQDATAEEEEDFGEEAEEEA

Vimentin (Homo sapiens) = Vimentin (Homo sapiens) (UniProt P08670); assay: Binding affinity to vimentin in human Hela cells lysates assessed as protein enrichment by measuring normalized heavy/light ratio at by nano-LC-ESIMS/MS analysis; assay type: cell-free
Sequence of Vimentin (Homo sapiens) (P08670 whole entry): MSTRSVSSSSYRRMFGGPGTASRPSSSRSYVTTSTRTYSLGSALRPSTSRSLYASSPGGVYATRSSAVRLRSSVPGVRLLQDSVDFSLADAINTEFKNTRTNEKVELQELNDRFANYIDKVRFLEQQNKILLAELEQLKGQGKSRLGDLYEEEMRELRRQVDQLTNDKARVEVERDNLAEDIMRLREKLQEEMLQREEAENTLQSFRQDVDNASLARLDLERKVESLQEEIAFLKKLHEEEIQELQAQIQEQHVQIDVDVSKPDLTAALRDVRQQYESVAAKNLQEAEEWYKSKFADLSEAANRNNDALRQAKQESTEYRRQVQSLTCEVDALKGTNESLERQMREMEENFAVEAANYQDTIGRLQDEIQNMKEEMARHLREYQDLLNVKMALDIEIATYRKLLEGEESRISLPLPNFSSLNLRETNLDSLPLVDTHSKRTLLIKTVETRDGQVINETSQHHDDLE

[24] = target: Tubulin beta-4B chain (Homo sapiens) (UniProt P68371); assay: Binding affinity to tubulin beta-4B chain in human Hela cells lysates assessed as protein enrichment by measuring normalized heavy/light ratio at by nano-LC-ESIMS/MS analysis
Sequence of Tubulin beta-4B chain (Homo sapiens) (P68371 whole entry, looked up): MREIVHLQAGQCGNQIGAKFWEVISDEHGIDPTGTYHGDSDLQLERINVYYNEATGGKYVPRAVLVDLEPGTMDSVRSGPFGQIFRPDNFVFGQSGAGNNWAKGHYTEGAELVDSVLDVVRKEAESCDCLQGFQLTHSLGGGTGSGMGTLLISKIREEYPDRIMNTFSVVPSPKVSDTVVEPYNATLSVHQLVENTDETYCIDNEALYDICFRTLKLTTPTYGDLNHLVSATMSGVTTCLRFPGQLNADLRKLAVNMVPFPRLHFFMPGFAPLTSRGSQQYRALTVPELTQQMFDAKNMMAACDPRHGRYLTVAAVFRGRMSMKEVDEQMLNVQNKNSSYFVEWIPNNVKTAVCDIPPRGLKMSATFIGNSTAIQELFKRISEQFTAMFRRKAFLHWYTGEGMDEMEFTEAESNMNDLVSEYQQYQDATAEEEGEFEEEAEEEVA

- Ratio [1]: 0.114
- Ratio [2]: 0.418
- Ratio [3]: 0.075
- Ratio [4]: 0.238
- Ratio [5]: 0.255
- Ratio [6]: 0.27
- Ratio [7]: 0.329
- Ratio [8]: 0.332
- Ratio [9]: 0.527
- Ratio [10]: 0.396
- Ratio [11]: 0.811
- Ratio [12]: 0.536
- Ratio [13]: 0.524
- Ratio [14]: 1.53
- Ratio [15]: 0.48
- Ratio [16]: 1.21
- Ratio [17]: 1.06
- Ratio [18]: 0.665
- Ratio [19]: 0.633
- Ratio [21]: 0.988
- Ratio [22]: 0.623
- Ratio [23]: 0.52
- Ratio (Vimentin (Homo sapiens)): 0.817
- Ratio [24]: 0.423
Compound: C/C=C(\C)C(=O)O[C@H]1[C@H](O)[C@]2(COC(C)=O)[C@@H](O)C[C@]3(C)C(=CC[C@@H]4[C@@]5(C)CC[C@H](O[C@@H]6O[C@H](C(=O)O)[C@@H](O)[C@H](O)[C@H]6O)[C@@](C)(CO)[C@@H]5CC[C@]43C)[C@@H]2CC1(C)C
- Ratio [20]: 0.68
